The source of these data is ChEMBL document CHEMBL1201862, “PubChem BioAssay data set” (2004).

The term GI50 denotes the concentration giving 50% growth inhibition.

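Five concentrations, 48 hours, 96-well plates. GI50: concentration for 50% inhibition of growth.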 The source made the active and inactive calls. Rule as the data show it: active = GI50 up to about 1.1 µM and inactive = higher.

Test systems include A549; A498; SNB-75; HCC 2998; NCI-H226; RXF 393; SK-OV-3; HL-60; SN12C; NCI-H23; CCRF-CEM; U-251; OVCAR-8; Hs-578T; OVCAR-4; 786-0; NCI/ADR-RES; HOP-62; HCT-15.
Common to all, as to assay: DTP human tumour cell line panel, 48 h

Consider `CCCCCCCCCCCCCCCCCCNc1nc(=O)n(C2CC(OP(=O)(O)OCC3OC(n4cc(F)c(=O)[nH]c4=O)CC3O)C(CO)O2)cc1F` (stereo not given), for which the GI50 is 7.24 µM (inactive) with A549; 13 µM (inactive) in the experiment on A498; 36.9 µM (inactive) in the experiment with SNB-75; 5.97 µM (inactive) in the experiment with HCC 2998; 98.4 µM (inactive) in the experiment on NCI-H226; 11.4 µM (inactive) in the experiment with RXF 393. Further, the GI50 with SK-OV-3 is 31.7 µM (inactive); in the experiment with HL-60, 5.18 µM (inactive); in the experiment on SN12C, > 100 µM (inactive); in the experiment with NCI-H23, 38.8 µM (inactive); in the experiment on CCRF-CEM, 12.9 µM (inactive); in the experiment with U-251, 17.5 µM (inactive). Also, the GI50 in the experiment on OVCAR-8 was 17.5 µM (inactive); in the experiment with Hs-578T, 35.2 µM (inactive); in the experiment with OVCAR-4 it was > 100 µM (inactive); in the experiment with 786-0, 49.4 µM (inactive); in the experiment with NCI/ADR-RES it was 30.3 µM (inactive); in the experiment on HOP-62 it was 15.2 µM (inactive). Also, the 50% growth inhibitory concentration (GI50) with HCT-15 is 37.5 µM.
As to `CCOC(=O)C(C)c1nc2cc(C(F)(F)F)ccc2[nH]c1=O` (stereo not given), the GI50 was > 100 µM (inactive) in the experiment with A549; 64.3 µM (inactive) in the experiment on A498; > 100 µM (inactive) in the experiment with SNB-75; > 100 µM (inactive) in the experiment with HCC 2998; > 100 µM (inactive) in the experiment with NCI-H226; > 100 µM (inactive) in the experiment with RXF 393. The GI50 with SK-OV-3 was > 100 µM (inactive); with HL-60 it was 62.7 µM (inactive); in the experiment with SN12C, > 100 µM (inactive); in the experiment with NCI-H23, 81.7 µM (inactive); with CCRF-CEM, > 100 µM (inactive); with U-251 it was > 100 µM (inactive). Besides, the GI50 in the experiment with OVCAR-8 is > 100 µM (inactive); with Hs-578T, > 100 µM (inactive); with OVCAR-4, 81.5 µM (inactive); in the experiment on 786-0, > 100 µM (inactive); with NCI/ADR-RES it was 47.8 µM (inactive); in the experiment with HOP-62, > 100 µM (inactive). The molecule further yielded a GI50 with HCT-15 above 100 µM.
`COc1ccc(C(=O)Nc2ccc3oc(-c4ccccc4)nc3c2)cc1`: the GI50 was > 100 µM (inactive) in the experiment with A549; > 100 µM (inactive) in the experiment with A498; 29 µM (inactive) in the experiment with SNB-75; > 100 µM (inactive) in the experiment with HCC 2998; > 100 µM (inactive) in the experiment with NCI-H226; > 100 µM (inactive) in the experiment with RXF 393. Further, the GI50 was 56.4 µM (inactive) with SK-OV-3; > 100 µM (inactive) in the experiment with HL-60; > 100 µM (inactive) with SN12C; > 100 µM (inactive) in the experiment on NCI-H23; > 100 µM (inactive) in the experiment with CCRF-CEM; 61.7 µM (inactive) in the experiment on U-251. Further, the GI50 in the experiment on OVCAR-8 is 22.3 µM (inactive); in the experiment on Hs-578T, > 100 µM (inactive); in the experiment with OVCAR-4, > 100 µM (inactive); in the experiment on 786-0, 92.7 µM (inactive); with NCI/ADR-RES, 70.1 µM (inactive); with HOP-62, 76.6 µM (inactive). In addition, in the experiment with HCT-15, the GI50 is above 100 µM.
For `c1ccc(COc2nc3cc(C45CC6CC(CC(C6)C4)C5)ccc3[nH]2)cc1`, the GI50 was 16.5 µM (inactive) with A549; 23.3 µM (inactive) in the experiment with A498; 29.6 µM (inactive) in the experiment on SNB-75; 9.68 µM (inactive) in the experiment with HCC 2998; 12 µM (inactive) in the experiment with NCI-H226; 11.3 µM (inactive) with RXF 393. In addition, the GI50 was 29.8 µM (inactive) in the experiment on SK-OV-3; 9.38 µM (inactive) in the experiment on HL-60; 18.5 µM (inactive) in the experiment with SN12C; 6.3 µM (inactive) in the experiment on NCI-H23; 10.2 µM (inactive) with CCRF-CEM; 8.87 µM (inactive) in the experiment with U-251. Also, the GI50 in the experiment with OVCAR-8 is 18 µM (inactive); in the experiment with Hs-578T it was 23 µM (inactive); in the experiment with OVCAR-4 it was > 31.3 µM (inactive); in the experiment with 786-0, 14.9 µM (inactive); with NCI/ADR-RES, 7.45 µM (inactive); in the experiment with HOP-62 it was 24.4 µM (inactive). In addition, growth with HCT-15 was halved (GI50) at 3.72 µM.
For the molecule `C/C(=C\c1csc(C)n1)[C@@H]1C[C@@H]2O[C@@H]2CCC[C@H](C)[C@H](O)[C@@H](C)C(=O)C(C)(C)[C@@H](O)CC(=O)O1.C/C(=C\c1csc(C)n1)[C@@H]1C[C@@H]2O[C@]2(C)CCC[C@H](C)[C@H](O)[C@@H](C)C(=O)C(C)(C)[C@@H](O)CC(=O)O1`, the GI50 in the experiment on A549 is 0.0039 µM (active); in the experiment on A498, 0.0105 µM (active); in the experiment with SNB-75, 0.00384 µM (active); in the experiment with HCC 2998, 0.00403 µM (active); in the experiment on NCI-H226 it was 0.0455 µM (active); in the experiment with RXF 393 it was 0.00266 µM (active). Further, the GI50 in the experiment with SK-OV-3 is 0.00971 µM (active); with HL-60 it was 0.00475 µM (active); with SN12C, 0.00562 µM (active); in the experiment with NCI-H23 it was 0.00664 µM (active); in the experiment with CCRF-CEM it was 0.0478 µM (active); with U-251 it was 0.0055 µM (active). The GI50 in the experiment with OVCAR-8 was 0.0048 µM (active); in the experiment on Hs-578T, 0.00378 µM (active); in the experiment with OVCAR-4, 1 µM (active); with 786-0, 0.005 µM (active); in the experiment with NCI/ADR-RES, 0.0191 µM (active); in the experiment on HOP-62, 0.0258 µM (active). In the experiment with HCT-15, this molecule had a GI50 of 0.00218 µM.
Take `CCN1c2cc(Br)cc3[nH]c(=O)n(c23)CCC1C` (stereo not given): the GI50 was 15.1 µM (inactive) with A549; 12.3 µM (inactive) in the experiment on A498; 12.3 µM (inactive) in the experiment with SNB-75; 15.6 µM (inactive) with HCC 2998; 15.8 µM (inactive) in the experiment on NCI-H226; 11.6 µM (inactive) with RXF 393. In addition, the GI50 in the experiment on SK-OV-3 was 19.4 µM (inactive); with HL-60, 11.9 µM (inactive); in the experiment with SN12C it was 16.7 µM (inactive); with NCI-H23, 21.7 µM (inactive); in the experiment with CCRF-CEM it was 12 µM (inactive); with U-251 it was 14.8 µM (inactive). Also, the GI50 in the experiment with OVCAR-8 was 14.4 µM (inactive); in the experiment on Hs-578T, 3.46 µM (inactive); with OVCAR-4, 20 µM (inactive); in the experiment on 786-0, 14.3 µM (inactive); in the experiment on NCI/ADR-RES, 5.7 µM (inactive); in the experiment on HOP-62, 18 µM (inactive). Also, the GI50 in the experiment with HCT-15 was 14.5 µM.
With `CC(C)(C)c1cc(OCc2nnc(S)n2N)c(Cl)cc1OCc1nnc(S)n1N`, the GI50 in the experiment with A549 is 52.2 µM (inactive); in the experiment on A498, 30.6 µM (inactive); with SNB-75, 44.1 µM (inactive); in the experiment with HCC 2998, 31.1 µM (inactive); in the experiment with NCI-H226, > 100 µM (inactive); in the experiment on RXF 393, 26.2 µM (inactive). The GI50 with SK-OV-3 was > 100 µM (inactive); with HL-60 it was 4.19 µM (inactive); in the experiment with SN12C, 28.4 µM (inactive); with NCI-H23, 42.8 µM (inactive); in the experiment with CCRF-CEM it was 22.9 µM (inactive); with U-251 it was 29.7 µM (inactive). The GI50 with OVCAR-8 was 50.5 µM (inactive); in the experiment on Hs-578T, 43 µM (inactive); in the experiment with OVCAR-4, 43.3 µM (inactive); with 786-0 it was 59.6 µM (inactive); in the experiment on NCI/ADR-RES it was > 100 µM (inactive); in the experiment on HOP-62, 59 µM (inactive). In addition, the GI50 with HCT-15 is 55.8 µM.
Regarding `C=C1C(=O)OC2CC(C)C3(O)CCC(=O)C3(C)CC12` (stereo not given), the GI50 was 52.4 µM (inactive) with A549; 25.8 µM (inactive) in the experiment with A498; 20.2 µM (inactive) in the experiment with SNB-75; 23 µM (inactive) in the experiment on HCC 2998; 64 µM (inactive) in the experiment on NCI-H226; 21.8 µM (inactive) in the experiment on RXF 393. Besides, the GI50 in the experiment with SK-OV-3 was 46.8 µM (inactive); in the experiment on HL-60, 18 µM (inactive); with SN12C, 19.1 µM (inactive); in the experiment on NCI-H23 it was 31.7 µM (inactive); in the experiment on CCRF-CEM, 33.8 µM (inactive); in the experiment on U-251 it was 38.1 µM (inactive). Further, the GI50 is 24.6 µM (inactive) with OVCAR-8; 25.9 µM (inactive) in the experiment on Hs-578T; 18.7 µM (inactive) in the experiment with OVCAR-4; 21.3 µM (inactive) in the experiment with 786-0; 32.4 µM (inactive) in the experiment with NCI/ADR-RES; 28.2 µM (inactive) in the experiment on HOP-62. In addition, in the experiment with HCT-15, the GI50 is 14.9 µM.
For `Cc1cn(CC2(CO)CCC2)c(=O)[nH]c1=O`, the GI50 in the experiment on A549, with A498, in the experiment on SNB-75, in the experiment with HCC 2998, in the experiment on NCI-H226 and in the experiment on RXF 393 was > 100 µM (inactive) each time. Further, the GI50 with SK-OV-3, with HL-60, in the experiment on SN12C, in the experiment with NCI-H23, with CCRF-CEM and with U-251 was > 100 µM (inactive) throughout. In addition, the GI50 in the experiment with OVCAR-8, in the experiment on Hs-578T, in the experiment with OVCAR-4, in the experiment with 786-0, with NCI/ADR-RES and with HOP-62 was > 100 µM (inactive) each time. The GI50 in the experiment with HCT-15 was above 100 µM.
For the molecule `O=C1OC2c3ccccc3C(=O)C2(c2ccccc2)N1c1ccccc1` (stereo not given), the GI50 in the experiment on A549 is > 200 µM (inactive); in the experiment with A498 it was > 200 µM (inactive); with SNB-75, 45.4 µM (inactive); in the experiment with HCC 2998, > 200 µM (inactive); in the experiment on NCI-H226 it was > 200 µM (inactive); in the experiment with RXF 393, > 200 µM (inactive). The GI50 in the experiment on SK-OV-3 was > 200 µM (inactive); with HL-60, 29.9 µM (inactive); in the experiment on SN12C it was > 200 µM (inactive); with NCI-H23 it was > 200 µM (inactive); with CCRF-CEM it was 128 µM (inactive); in the experiment on U-251, > 200 µM (inactive). Also, the GI50 with OVCAR-8, in the experiment on Hs-578T, in the experiment with OVCAR-4, in the experiment with 786-0, in the experiment on NCI/ADR-RES and in the experiment on HOP-62 was > 200 µM (inactive) throughout. For the same molecule, in the experiment with HCT-15, the GI50 is above 200 µM.
